Assay results reported in patent US20260356834A1, “ANTICONVULSIVE COMPOUNDS AND USES THEREOF” (Jazz Pharmaceuticals Research UK Limite, priority 2023, published 2026).
Values joined by “and” are separate entries in the source; they are usually repeats but may differ in a detail not shown here. Equal entries are not always repeated. Marks after values point to notes of the source that are not given here.

Assays:
C57BL/6J mice = assay: mouse maximal electroshock seizure threshold model using minimal sample sizes (mini-MEST)
Description: An increase in seizure threshold is indicative of an anticonvulsive effect.
The ability of a test compound to alter the stimulus intensity, expressed as current (mA), required to induce the presence of tonic hind limb extensor convulsions, is assessed in the MEST.
In the mini-MEST test, a lower n number is used.
Male C57BL/6J mice were housed in groups of 6. Mice were kept under standard conditions (12 hour light cycle; light intensity of 25-75 lux) and fed a diet of certified rodent CR 14% protein rodent diet (LabDiet® 4CR4). Mice were 8-9 weeks old at the start of the study.
Naïve mice were acclimatised to the procedure room in their home cages for up to 7 days, with food and water available ad libitum.
All animals were weighed at the beginning of the study and randomly assigned to treatment groups based on a mean distribution of body weight across groups.
The first animal within a treatment group was given a shock at the expected or estimated CC50 current. For subsequent animals, the current was lowered or raised depending on the convulsions outcome from the preceding animal in log scale intervals.
Data generated from each treatment group were used to calculate the CC50±SEM values for the treatment group.
Vehicle: (5% ethanol, 10% Solutol® (Kolliphor® HS 15), 85% saline). 1 mL of ethanol, 2 mL of Solutol™ were warmed to 60 °C, in 17 mL of 0.9% saline.
Test compounds: 5-50 mg/kg in a 1:2:17 ethanol:Solutol®:saline formulation (as used for vehicle).
RjOrl: Swiss mice = assay: mouse 6 Hz (44 mA) model of partial seizures; assay type: in vivo; details: for Mean Forelimb Clonus +/− SEM: score 0-2; for Change from vehicle 2 (forelimb clonus): vs vehicle 2 (1:2:17)
Text: The 6 Hz (44 mA) model of partial seizures, which detects anticonvulsant activity, follows that described by Brown et al. 1953.
[…] A decrease in forelimb clonus score is indicative of protection from seizure and an anticonvulsive effect.
When conducted at a 44 mA stimulus intensity in mice, the 6 Hz test can differentiate compounds with potential for the treatment of focal-onset seizures that are often resistant to current anti-epileptic drugs.
Male RjOrl: Swiss mice (Janvier Labs, 53940 Le Genest-Saint-Isle, France), 5 weeks old, weighing 27-38 g at the beginning of the experiment. Animals were acclimatized to the Test Facility for at least 5 days after delivery and randomly housed in groups of 5 to 8 in macrolon cages on wood litter with free access to food and water.
(§1) The animal house was maintained under artificial lighting (12 hours) between 7:00 and 19:00 in a controlled ambient temperature of 22±2 °C and relative humidity between 30-70%.
Before transcorneal stimulation, a drop of tetracaine solution (1%) was applied on each eye of the mouse for local anesthesia. Between 1-10 minutes later and at the designated pre-treatment (see below), the mice were administered a rectangular current (44 mA, rectangular pulse: 0.2 ms pulse width, 3 s duration, (6 Hz) via corneal electrodes connected to a constant current shock generator (Ugo Basile: type 7801).
The results for the number of seizures as reflected by forelimb clonus were recorded immediately after current administration. Forelimb clonus was scored as absent (0=no forelimb clonus), mild (1=clonus with one forelimb) and strong (2=clonus with both forelimbs). The experimenters were blinded to the treatment. […]
The administration volume was 10 mL/kg.
Due to the number of animals tested, the experiment was divided in 2 sub-experiments on 2 consecutive days with equivalent numbers of mice per group and per sub-experiment.
Data were discrete values so considered to be non-normally distributed based on validation data, therefore non-parametric tests were utilized. Quantitative data (scores) with the test substance were analyzed by comparing test compound-treated groups with the 1:2:17 vehicle control using Kruskal-Wallis test with Dunn's multiple comparisons test when the Kruskal-Wallis test was significant. Quantitative data with the reference substance were analyzed using Mann-Whitney U test as compared to saline vehicle.

DBA/2 mice = assay: mouse audiogenic seizure test; assay type: in vivo
Text: The Audiogenic Seizure Test, which detects anticonvulsant activity, follows that described by Durmüller et al., 1993. Mice of the DBA/2 strain undergo an age-dependent sequence of convulsions (wild-running, clonic convulsion, tonic convulsion and respiratory arrest) within 60 seconds of exposure to a loud sound of 110-120 dB. The type of convulsions are consistent with aspects of generalised seizure in humans.
Male DBA/2 mice (3-4 weeks old) were supplied by Janvier Labs (53940 Le Genest-Saint-Isle, France); weight range 6-13 g at the beginning of the experiment. Animals were acclimatized to the Test Facility for 1 day after delivery and randomly housed in groups of 5 in macrolon cages on wood litter with free access to food and water.
as §1
Mice were individually transferred (at 3-5 minutes intervals) from the preparation room into an adjacent experimental room and body temperature was measured using a rectal thermometer (Digital Laboratory Thermometer: Model BAT-12). Immediately after, they were placed in a Plexiglas jar (Diameter=40 cm; Height=35 cm) mounted with an electric bell (110-120 dB, supplier Leroy Merlin, France). Upon activating the bell, the occurrences and latencies to wild running fits, clonic and tonic seizures were measured. Deaths were also recorded. The bell was activated until a tonic seizure occurred, or for a maximum of 60 seconds.
The experiment included groups of 10 mice per group. Experimenters were only partially blinded to treatment group as pre-treatment times were different.
The test substance was evaluated at various doses, administered i.p. (10 ml/kg) 15 or 30 minutes before the test, and compared with a vehicle control group.
Due to the number of animals tested, the experiment was divided in 2 sub-experiments on 2 separate days (7 days apart) with 5 mice per group in each sub-experiment.
Data were tested for normality using d'Agostino-Pearson Test and found to not follow a normal distribution. Statistical outliers were not identified or removed because no behavioural outliers were identified. Quantitative data (latencies) with the test substance were analyzed by comparing treated groups with vehicle control using Kruskal-Wallis test followed by Dunn's multiple comparisons test. Quantitative data with the reference substance were analyzed using Mann-Whitney U test. Quantal data (frequencies) were analyzed by comparing treated groups with vehicle control using Fisher's Exact Probability test.

[1] = 25 mg/kg p.o., 15 min post dose
[2] = 25 mg/kg p.o., 60 min post dose
[3] = 30 mg/kg i.p., 30 min post dose
[4] = 50 mg/kg p.o., 30 min post dose
[5] = 50 mg/kg p.o., 60 min post dose
[6] = 50 mg/kg p.o., 120 min post dose
[7] = 50 mg/kg p.o., 240 min post dose

Structure (SMILES): CCCc1cc(O)c(-c2c(C)c(Cl)cn3ccnc23)c(O)c1 [Compound 4, 2-(6-Chloro-7-methylimidazo[1,2-a]pyridin-8-yl)-5-propylbenzene-1,3-diol]
- CC50 +/− SEM (C57BL/6J mice; [1]): 80.9 ± 3.7 mA
- Change from vehicle (CC50) (C57BL/6J mice; [1]): 216%
- CC50 +/− SEM (C57BL/6J mice; 25 mg/kg p.o., 30 min post dose): 92.9 ± 1.1 mA and 53.5 ± 3.4 mA and 106.6 ± 1.1 mA
- CC50 +/− SEM (C57BL/6J mice; [2]): 70.5 ± 1.1 mA
- Change from vehicle (CC50) (C57BL/6J mice; [2]): 176%
- CC50 +/− SEM (C57BL/6J mice; [3]): 70.5 ± 1.1 mA
- Change from vehicle (CC50) (C57BL/6J mice; [3]): 140%
- CC50 +/− SEM (C57BL/6J mice; [4]): 80.9 ± 1.1 mA
- Change from vehicle (CC50) (C57BL/6J mice; [4]): 145%
- CC50 +/− SEM (C57BL/6J mice; [5]): >131.0 mA
- Change from vehicle (CC50) (C57BL/6J mice; [5]): >297%
- CC50 +/− SEM (C57BL/6J mice; [6]): 61.4 ± 1.1 mA
- Change from vehicle (CC50) (C57BL/6J mice; [6]): 100%
- CC50 +/− SEM (C57BL/6J mice; [7]): 61.4 ± 3.7 mA
- Change from vehicle (CC50) (C57BL/6J mice; [7]): 100%
- Mean Forelimb Clonus +/− SEM (RjOrl: Swiss mice; 10 mg/kg i.p., 30 min): 1.00 ± 0.11
- Change from vehicle 2 (forelimb clonus) (RjOrl: Swiss mice; 10 mg/kg i.p., 30 min): +54%
- Mean Forelimb Clonus +/− SEM (RjOrl: Swiss mice; 30 mg/kg i.p., 15 min): 0.30 ± 0.11
- Change from vehicle 2 (forelimb clonus) (RjOrl: Swiss mice; 30 mg/kg i.p., 15 min): −54%
- Mean Forelimb Clonus +/− SEM (RjOrl: Swiss mice; 60 mg/kg i.p., 30 min): 0.30 ± 0.11
- Change from vehicle 2 (forelimb clonus) (RjOrl: Swiss mice; 60 mg/kg i.p., 30 min): −54%
- Mean Forelimb Clonus +/− SEM (RjOrl: Swiss mice; 100 mg/kg i.p., 30 min): 0.11 ± 0.07
- Change from vehicle 2 (forelimb clonus) (RjOrl: Swiss mice; 100 mg/kg i.p., 30 min): −83%**
- sedation (RjOrl: Swiss mice; 60 and 100 mg/kg i.p.): ***p < 0.001; relatively low forelimb seizure scores in the 1:2:17 vehicle group may impact data interpretation; slight to moderate sedation observed with Compound 4 at 60 and 100 mg/kg.
- Clonic convulsion - latency, Change from vehicle (DBA/2 mice; 3 mg/kg i.p., 30 min): −5%
- Clonic convulsion - presence, % (DBA/2 mice; 3 mg/kg i.p., 30 min): 100%
- Clonic convulsion - presence, Change from vehicle (DBA/2 mice; 3 mg/kg i.p., 30 min): 0%
- Tonic convulsion - latency, Change from vehicle (DBA/2 mice; 3 mg/kg i.p., 30 min): +6%
- Tonic convulsion - presence, % (DBA/2 mice; 3 mg/kg i.p., 30 min): 90%
- Tonic convulsion - presence, Change from vehicle (DBA/2 mice; 3 mg/kg i.p., 30 min): −10%
- Wild running - latency, Change from vehicle (DBA/2 mice; 3 mg/kg i.p., 30 min): −2%
- Wild running - presence, % (DBA/2 mice; 3 mg/kg i.p., 30 min): 100%
- Wild running - presence, Change from vehicle (DBA/2 mice; 3 mg/kg i.p., 30 min): 0%
- Clonic convulsion - latency, Change from vehicle (DBA/2 mice; 10 mg/kg i.p., 30 min): +5%
- Clonic convulsion - presence, % (DBA/2 mice; 10 mg/kg i.p., 30 min): 90%
- Clonic convulsion - presence, Change from vehicle (DBA/2 mice; 10 mg/kg i.p., 30 min): −10%
- Tonic convulsion - latency, Change from vehicle (DBA/2 mice; 10 mg/kg i.p., 30 min): +24%
- Tonic convulsion - presence, % (DBA/2 mice; 10 mg/kg i.p., 30 min): 70%
- Tonic convulsion - presence, Change from vehicle (DBA/2 mice; 10 mg/kg i.p., 30 min): −30%
- Wild running - latency, Change from vehicle (DBA/2 mice; 10 mg/kg i.p., 30 min): +4%
- Wild running - presence, % (DBA/2 mice; 10 mg/kg i.p., 30 min): 100%
- Wild running - presence, Change from vehicle (DBA/2 mice; 10 mg/kg i.p., 30 min): 0%
- latency to clonic convulsions (significance in words) (DBA/2 mice; 30 mg/kg i.p. vs vehicle): significantly increased
- latency to tonic convulsions (significance in words) (DBA/2 mice; 30 mg/kg i.p. vs vehicle): significantly increased
- latency to wild running (significance in words) (DBA/2 mice; 30 mg/kg i.p. vs vehicle): significantly increased
- Clonic convulsion - latency, Change from vehicle (DBA/2 mice; 30 mg/kg i.p., 15 min): +368%**
- Clonic convulsion - presence, % (DBA/2 mice; 30 mg/kg i.p., 15 min): 70%
- Clonic convulsion - presence, Change from vehicle (DBA/2 mice; 30 mg/kg i.p., 15 min): −30%
- Tonic convulsion - latency, Change from vehicle (DBA/2 mice; 30 mg/kg i.p., 15 min): +426%***
- Tonic convulsion - presence, % (DBA/2 mice; 30 mg/kg i.p., 15 min): 10%
- Wild running - latency, Change from vehicle (DBA/2 mice; 30 mg/kg i.p., 15 min): +608%**
- Wild running - presence, % (DBA/2 mice; 30 mg/kg i.p., 15 min): 70%
- Wild running - presence, Change from vehicle (DBA/2 mice; 30 mg/kg i.p., 15 min): −30%
- latency to clonic convulsions (significance in words) (DBA/2 mice; 60 mg/kg i.p. vs vehicle): significantly increased
- latency to tonic convulsions (significance in words) (DBA/2 mice; 60 mg/kg i.p. vs vehicle): significantly increased
- latency to wild running (significance in words) (DBA/2 mice; 60 mg/kg i.p. vs vehicle): significantly increased
- Clonic convulsion - latency, Change from vehicle (DBA/2 mice; 60 mg/kg i.p., 30 min, n = 9): +614%***
- Clonic convulsion - presence, % (DBA/2 mice; 60 mg/kg i.p., 30 min, n = 9): 11%
- Tonic convulsion - latency, Change from vehicle (DBA/2 mice; 60 mg/kg i.p., 30 min, n = 9): +426%***
- Tonic convulsion - presence, % (DBA/2 mice; 60 mg/kg i.p., 30 min, n = 9): 0%
- Wild running - latency, Change from vehicle (DBA/2 mice; 60 mg/kg i.p., 30 min, n = 9): +1150%***
- Wild running - presence, % (DBA/2 mice; 60 mg/kg i.p., 30 min, n = 9): 22%
- number of mice displaying clonic convulsions (significance in words) (DBA/2 mice; 3, 10 or 30 mg/kg i.p.): no significant differences
- number of mice displaying wild running (significance in words) (DBA/2 mice; 3, 10 or 30 mg/kg i.p.): no significant differences
- latency to clonic convulsions (significance in words) (DBA/2 mice; 3 and 10 mg/kg i.p. vs vehicle): no significant differences
- latency to wild running (significance in words) (DBA/2 mice; 3 and 10 mg/kg i.p. vs vehicle): no significant differences
- number of mice displaying tonic convulsions (significance in words) (DBA/2 mice; 3 or 10 mg/kg i.p.): no significant differences
- latency to tonic convulsions (significance in words) (DBA/2 mice; 3 or 10 mg/kg i.p. vs vehicle): no significant differences
